Laboratory results reported in PMC5260423 (Journal of Veterinary Internal Medicine, 2016).

Columns and labels:
[1] = molecular target: Angiotensin converting enzyme (ACE) (Canis lupus familiaris, UniProt A0A8I3S3I6); type: in vivo, dog; conditions: enalapril 0.5 mg/kg orally twice a day, 14–21 days
[2] = type: in vivo, dog; conditions: mean ± SD; 18 of 20 dogs; single 1 mg/kg oral aspirin; LC‐MS
[3] = not given; remark: listed apart in the source
platelet function [4] = type: in vivo, dog; conditions: day 7
platelet function [5] = type: in vivo, dog; conditions: day 7; HM5 analyzer
platelet function [6] = type: in vivo, dog; conditions: day 7; remark: listed apart in the source
[7] = type: in vivo, dog; conditions: 15 mg/kg PO q12 h for 2 weeks
[8] = type: in vivo, dog
[9] = type: in vivo, dog; remark: listed apart in the source
tubulin = type: cell-based, dog
[10] = not given; remark: listed apart in the source
platelet function [11] = type: in vivo, dog
platelet aggregation = type: in vivo, dog; conditions: 1 mg/kg orally; 20, 40 and 180 minutes
platelet function [12] = type: in vivo, dog; conditions: Day 7
[13] = type: in vivo, dog; remark: listed apart in the source
[14] = type: in vivo, dog; remark: listed apart in the source
Pseudomonas aeruginosa = type: in vivo, dog
[15] = test system: hypothalamic‐pituitary‐thyroid axis; type: in vivo, dog; conditions: mean dose 0.024 mg/kg every 24 hours for 8 or 16 weeks
[16] = type: in vivo, cat
[17] = type: in vivo, dog; remark: listed apart in the source
[18] = test system: Anaplasma phagocytophilum; type: in vivo, dog
[19] = type: in vivo, dog; conditions: 7 days, AST 24 hours after last dose
[20] = 8.5 mg/kg orally every 12 hours

Sequence of Angiotensin converting enzyme (ACE) (A0A8I3S3I6 31-1241 limits assumed): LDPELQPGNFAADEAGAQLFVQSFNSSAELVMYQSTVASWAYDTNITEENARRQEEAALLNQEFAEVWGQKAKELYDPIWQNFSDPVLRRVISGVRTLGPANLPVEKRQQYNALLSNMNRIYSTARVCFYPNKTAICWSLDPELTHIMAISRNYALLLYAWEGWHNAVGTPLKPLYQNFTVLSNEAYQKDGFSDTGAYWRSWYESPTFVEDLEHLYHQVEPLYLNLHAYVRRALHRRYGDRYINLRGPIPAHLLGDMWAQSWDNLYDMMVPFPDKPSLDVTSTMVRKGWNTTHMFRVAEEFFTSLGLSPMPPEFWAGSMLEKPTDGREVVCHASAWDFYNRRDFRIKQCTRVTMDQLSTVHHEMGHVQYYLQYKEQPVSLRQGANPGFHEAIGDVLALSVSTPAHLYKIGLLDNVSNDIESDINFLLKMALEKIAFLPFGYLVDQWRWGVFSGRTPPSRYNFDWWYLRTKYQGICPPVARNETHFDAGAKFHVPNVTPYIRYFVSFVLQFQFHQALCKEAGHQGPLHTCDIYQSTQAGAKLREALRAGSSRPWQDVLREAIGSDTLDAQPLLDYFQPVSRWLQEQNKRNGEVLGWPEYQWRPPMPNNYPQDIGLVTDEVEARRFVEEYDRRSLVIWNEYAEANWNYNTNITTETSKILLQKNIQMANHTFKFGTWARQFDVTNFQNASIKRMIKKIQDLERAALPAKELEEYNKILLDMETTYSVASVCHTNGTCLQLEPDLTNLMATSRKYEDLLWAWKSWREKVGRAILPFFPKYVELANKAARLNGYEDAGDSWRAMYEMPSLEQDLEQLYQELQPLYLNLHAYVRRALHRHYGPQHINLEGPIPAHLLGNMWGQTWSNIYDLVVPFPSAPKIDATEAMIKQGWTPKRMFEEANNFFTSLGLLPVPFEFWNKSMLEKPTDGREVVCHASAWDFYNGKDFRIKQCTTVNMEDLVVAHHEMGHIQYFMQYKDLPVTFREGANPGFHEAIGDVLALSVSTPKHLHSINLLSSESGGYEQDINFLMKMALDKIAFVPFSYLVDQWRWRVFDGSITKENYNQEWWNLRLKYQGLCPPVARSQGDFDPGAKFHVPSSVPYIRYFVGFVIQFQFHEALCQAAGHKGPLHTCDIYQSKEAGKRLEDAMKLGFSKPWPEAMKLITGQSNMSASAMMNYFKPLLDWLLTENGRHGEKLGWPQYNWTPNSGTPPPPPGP

## COc1ccc2[nH]cc(CCNC(C)=O)c2c1 [treatment C, melatonin]
One of the two dogs
  tolerability: had to be withdrawn due to emesis

## CCOC(=O)[C@H](CCc1ccccc1)N[C@@H](C)C(=O)N1CCC[C@H]1C(=O)O [enalapril]
[1]; baseline 18.05 U/L
  median post therapy ACE activity, dogs homozygous for DNA variant: < 5.0 U/L
[1]; baseline 27.4 U/L
  median post therapy ACE activity, wildtype dogs: < 5.0 U/L

## O=C(O)c1ccccc1O [SA, salicylic acid]
[2]
  maximum plasma concentrations (Cmax): 21 ± 5 µM

## COc1cccc2c1C(=O)c1c(O)c3c(c(O)c1C2=O)C[C@@](O)(C(=O)CO)C[C@@H]3O[C@H]1C[C@H](N)[C@H](O)[C@H](C)O1 [doxorubicin]
[3]; IV every 21 days with toceranib 2.75 mg/kg PO every other day, 21 dogs
  MTD of doxorubicin in the combination: 25 mg/m2
[3]; dog, in vivo
  dose limiting toxicity (DLT): neutropenia

## COC(=O)[C@H](c1ccccc1Cl)N1CCc2sccc2C1 [clopidogrel]
Platelet function [4]
  PFA closure time, COL‐ADP cartridge, post treatment mean: 185 s
  PFA closure time, P2Y cartridge, post treatment mean: > 300 s
Platelet function [5]
  PW % aggregation with AA, post treatment mean: 4%
  PW % aggregation with ADP, post treatment mean: 9%
Platelet function [6]
  MP AUC with AA, post treatment mean: 19 U
  MP AUC with ADP, post treatment mean: 13 U

## Cc1ncc([N+](=O)[O-])n1CCO [Metronidazole, metronidazole]
[7]
  altered fecal metabolites, out of 469 measured: 98
[7]; P < 0.001
  fecal secondary bile acids: reduction in secondary bile acids

## CCOc1cc(N)c(Cl)cc1C(=O)NCC1CN(Cc2ccc(F)cc2)CCO1 (stereo not drawn) [mosapride]
[8]; feeding only 65.0
  median increase of plasma motilin after feeding, Group N: -1.6 pg/mL
[8]; feeding only 173.3
  median increase of plasma motilin after feeding, Group S: 37.0 pg/mL

## Cc1oncc1C(=O)Nc1ccc(C(F)(F)F)cc1 [leflunomide]
[9]; 1 of 16
  increased liver enzyme activities: 6.3%
[9]; 2 of 31
  thrombocytopenia: 6.5%
[9]; 2 of 92
  lethargy: 2.2%
[9]; 3 of 92
  suspect blood dyscrasia: 3.3%
[9]; 3 of 92, mean dose 1.79 ± 0.8 mg/kg/day
  diarrhea: 3.3%
[9]; 6 dogs
  discontinued due to possible adverse events: 6.5%
[9]; 12 of 17 dogs (IMPA, IMTP, CH)
  dogs with apparent positive response: 70.5%

## COC(=O)Nc1nc2ccc(C(=O)c3ccccc3)cc2[nH]1 [MBZ, mebendazole]
tubulin
  tubulin depolymerization versus untreated control: increased depolymerization of tubulin

## O=P1(N(CCCl)CCCl)NCCCO1 (stereo not drawn) [cyclophosphamide]
[10]; 10 mg cyclophosphamide daily/every other day
  dogs with stable disease or partial/complete remission >100 days: 74%
[10]; 10 mg cyclophosphamide daily/every other day, three dogs
  dogs that developed haematuria: 8.6%
[10]; 13 of 35 dogs
  dogs still alive over one year later: 37%
[10]; 20 of 35 dogs
  dogs with DFI >6 months: 57%
[10]; n = 18
  median survival time (MST), intermediate/high grade sarcomas: 362 days

## CC(=O)Oc1ccccc1C(=O)O [aspirin, acetylsalicylic acid]
[2]
  maximum plasma concentrations (Cmax): 0.23 ± 0.21 µM
Platelet function [11]; 0.5 mg/kg, q24 h PO, Day 7 versus Day 0
  mean decrease in maximum amplitude, Dose A: 3.8%
Platelet function [11]; 1 mg/kg, q24 h PO, Day 7
  mean decrease in maximum amplitude, Dose B: 41.3%
Platelet function [11]; 2 mg/kg, q24 h PO, Day 7
  mean decrease in maximum amplitude, Dose C: 81.3%
Platelet function [11]; 4 mg/kg, q24 h PO, Day 7
  mean decrease in maximum amplitude, Dose D: 75.9%
Platelet function [11]; 10 mg/kg, q12 h PO, Day 7
  mean decrease in maximum amplitude, Dose E: 87.8%
Platelet aggregation
  inhibition of platelet aggregation after single dose: did not cause measureable inhibition of platelet aggregation
Platelet function [12]; 0.5 mg/kg, q24 h
  dogs with PFA‐100 closure time >300 seconds, Dose A: 0%
Platelet function [12]; 1 mg/kg, q24 h
  dogs with PFA‐100 closure time >300 seconds, Dose B: 25%
Platelet function [12]; 2 mg/kg, q24 h
  dogs with PFA‐100 closure time >300 seconds, Dose C: 62.5%
Platelet function [12]; 4 mg/kg, q24 h
  dogs with PFA‐100 closure time >300 seconds, Dose D: 87.5%
Platelet function [12]; 10 mg/kg, q12 h
  dogs with PFA‐100 closure time >300 seconds, Dose E: 87.5%
Platelet function [5]
  PW % aggregation with AA, post treatment mean: 7%

## Cc1[nH]c(/C=C2\C(=O)Nc3ccc(F)cc32)c(C)c1C(=O)NCCN1CCCC1 [toceranib phosphate]
[13]; dogs that developed proteinuria
  median time to development of proteinuria: 47 days
[13]; urine protein creatinine ratio
  median UPC in dogs that developed proteinuria: 0.7

## cyanocobalamin [cbl]
[14]; daily cyanocobalamin tablets ¼ to 1 mg by weight, n = 22, 245 at inclusion
  median serum cbl after 28 days, PO: 970 ng/L
[14]; dog, in vivo
  mean increase in serum cbl at 28 days to baseline, PE: 1465 ± 745 ng/L
[14]; dog, in vivo, po
  mean increase in serum cbl at 28 days to baseline, PO: 888 ± 449 ng/L
[14]; n = 13
  mean serum cbl after 3 months, PE: 803 ± 275 ng/L
[14]; n = 19, 221 ± 43 at inclusion
  mean serum cbl after 28 days, PE: 1686 ± 757 ng/L
[14]; n = 20
  median serum cbl after 3 months, PO: 1334 ng/L
[14]; range 38–997
  median increase in serum cbl after 3 months, PE: 608 ng/L
[14]; range 538–3663
  median increase in serum cbl after 3 months, PO: 970 ng/L

## C[C@]12CC[C@H]3[C@@H](CC[C@@]45O[C@@H]4C(O)=C(C#N)C[C@]35C)[C@@H]1CC[C@@H]2O [treatment A, trilostane]
After three months of treatment (stated for treatment A)
  dogs with complete hair regrowth: 50%
dog, in vivo
  dogs with partial regrowth: 37.5%

## CC[C@H]1OC(=O)[C@H](C)[C@@H](O[C@H]2C[C@@](C)(OC)[C@@H](O)[C@H](C)O2)[C@H](C)[C@@H](O[C@@H]2O[C@H](C)C[C@H](N(C)C)[C@H]2O)[C@](C)(O)C[C@@H](C)CN(C)[C@H](C)[C@@H](O)[C@]1(C)O [Azithromycin]
Pseudomonas aeruginosa; 1 mL of 50 µg/mL topical SID for 56 days, P ≥ 0.2
  concentration of BHL, HHL and OdDHL in ear canal samples: not affected
Pseudomonas aeruginosa; P = 0.5
  clinical signs and duration of the disease: no effect

## N[C@@H](Cc1cc(I)c(Oc2cc(I)c(O)c(I)c2)c(I)c1)C(=O)O [levothyroxine]
[15]
  mean serum TSH during administration compared to baseline: significantly lower
[15]; 28 dogs
  mean serum T4 and fT4 during administration compared to baseline: significantly higher

## COc1ccc2[nH]c([S+]([O-])Cc3ncc(C)c(OC)c3C)nc2c1 (stereo not drawn) [omeprazole]
[16]; 0.83–1.6 mg/kg PO q12 h for 60 days, 6 cats, P < 0.002
  serum gastrin in comparison to placebo: significantly higher
[16]; two cats with intragastric pH capsules
  intragastric pH after cessation: Evidence of gastric hyperacidity

## C[C@]12CCC(=O)C=C1CC[C@@H]1[C@@H]2[C@@H](O)C[C@@]2(C)[C@H]1CC[C@]2(O)C(=O)CO [Hydrocortisone, hydrocortisone]
[17]; [20]
  serum adiponectin concentrations on days 1, 3, 7, 30, 60, and 90 versus day 0: decreased
  serum leptin concentrations on days 1, 3, 7, 30, 60, and 90 versus day 0: significantly increased
[17]; 8.5 mg/kg orally every 12 hours for 90 days, six dogs, CT
  abdominal visceral fat mass on days 30, 60, and 90 versus day 0: increased abdominal visceral fat mass

## C[C@H]1c2cccc(O)c2C(=O)C2=C(O)[C@]3(O)C(=O)C(C(N)=O)=C(O)[C@@H](N(C)C)[C@@H]3[C@@H](O)[C@@H]21 [doxycycline]
[18]; doxycycline 5 mg/kg PO twice daily for 4 weeks from Week 20
  AP antibodies on Week 48 in Group 1: The only dogs that became AP seronegative by Week 48 were administered doxycycline

## CC(=O)OCC(=O)[C@@]1(O)CC[C@H]2[C@@H]3CCC4=CC(=O)CC[C@]4(C)[C@H]3C(=O)C[C@@]21C [CA, cortisone acetate]
[19]
  mean (±SEM) post AST serum cortisol, 25 mg: 335 ± 13 nmol/L
  mean (±SEM) post AST serum cortisol, 37.5 mg: 326 ± 13 nmol/L
  mean (±SEM) post AST serum cortisol, 50 mg: 308 ± 13 nmol/L
[19]; 14 dogs, placebo 365 ± 13
  mean (±SEM) post AST serum cortisol, 12.5 mg: 347 ± 13 nmol/L

## C[C@]12C=CC(=O)C=C1CC[C@@H]1[C@@H]2[C@@H](O)C[C@@]2(C)[C@H]1CC[C@]2(O)C(=O)CO [prednisolone]
[18]; prednisolone 2 mg/kg PO daily for 2 weeks from Week 24
  clinical abnormalities: Clinical abnormalities were not detected
